Reference: patent US12473250B2, “Molecular design of new antibiotics and antibiotic adjuvants against MCR strains” (priority 2019, dated 2025)
Converted amounts (≈) assume the structure as drawn.

What was measured:
[1] = test system: colistin resistant MCR (+) E. Coli strains; assay: MIC, broth microdilution, compound alone; type: cell-based
Summary of the method: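 Modified CLSI broth microdilution; inoculum from 18–20 h TSA colonies adjusted to 0.5 McFarland, ~5×10^5 CFU/mL per well. Plates incubated 24 h at 35 °C; turbidity may be read at OD600. MIC defined as concentration giving 99% inhibition.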

mcr-1 bacterial membrane = assay: Ethidium bromide (EtBr) fluorescence, membrane disruption; type: cell-based; settings: mcr-1 bacteria; in words
Experimental: However, EtBr is membrane impermeable, which means that it can only enter the bacterial cell and bind to DNA and emit fluorescence only when both the bacterial outer and inner membranes are perturbed. […] It is also possible that LC100 may have other targets. One possible target is the MCR-1 protein. To understand the interaction of LC100 and the MCR-1 protein, the fluorescence of MCR-1 protein in the presence of different concentration of LC100 was measured. MCR-1 protein contains several tryptophan residues, and autofluoresces at 323 nm.

[2] = test system: ENT CLOACAE multi-drug resistant strains; assay: MIC against multi-drug resistant strains (Table 5); type: cell-based, E. cloacae; settings: alone
Experimental: (§1) MIC experiments of the antimicrobial agents were determined by a modified broth microdilution method in accordance with the Clinical and Laboratory Standards Institute (CLSI) guidelines using 96 well culture plates. In brief, serial dilutions of all plates were prepared at different concentrations (μg). The inoculum suspension was prepared by adding isolated colonies from a 18-20 hours on TSA plate into phosphate buffer (0.31 mM, pH 7.2) or in water for injection (BBraun) and adjusting the suspension to a turbidity equivalent to 0.5 McFarland Standard. Each well contained a final bacterial concentration of approximately 5×10^5 colony forming units (CFU)/mL. The plate was covered and incubated at 35° C. for 24 hours. […] For the microdilution plates, turbidity in wells can be measured at OD600 using TECAN infinite M200Pro. MIC was determined as […] concentration that gives a 99 percent inhibition.

[3] = test system: KLPN multi-drug resistant strains; assay: MIC against multi-drug resistant strains (Table 5); type: cell-based, Klebsiella pneumonia; settings: alone
Experimental: as §1

[4] = test system: MCR positive E. coli Clinical isolate 6083655967; type: in vivo; settings: for reduction in bacterial burden: neutropenic mice, i.p. 1 hour after infection, 6 hours after treatment, colistin 10 mg/kg, LC100 50 mg/kg, meropenem 100 mg/kg, combination 50 + 10 mg/kg
Experimental: FIG. 21 refers to graphs showing the efficacy testing of combination of LC100 and Colistin in neutropenic mouse thigh infection model infected with MCR positive E. coli Clinical isolate 6083655967. Starting inoculum was 1.87×10^6, N=3. “Combination” refers to Colistin 10 mg/kg+LC100 50 mg/kg. Each treatment was done intraperitoneally 1 hour after infection. 6 hours after treatment, mouse thigh tissues were homogenized for viable CFU.
The combination of colistin and antimicrobial peptide (LC100) was tested against E. coli clinical isolate MCR-positive strain 6083655967 in a neutropenic mouse thigh infection model. C57BL/6 mice were rendered neutropenic by cyclophosphamide, dosed at 150 and 100 mg kg-1 delivered on days −4 and −1 prior to infection. Bacteria were suspended in sterile saline and adjusted to a concentration of ˜1.876×10^6 CFU per infection site (100 micro-liters) and injected intramuscularly into the right thigh of five mice per treatment group. At 1 h post infection, mice received colistin ([…], i.p. n=5), LC100 (50 mg kg-1, i.p. n=5), untreated (n=5), or the combination (n=5). Mice were euthanized 6 h after infection; thigh tissue was aseptically collected, homogenized, serially diluted in PBS and plated onto solid TSA supplemented plates. Plates were incubated overnight at 37° C. and colonies were quantified to determine bacterial load.
To evaluate the in vivo efficacy of the combination of LC100 and colistin, a neutropenic mouse thigh infection model was used. 30 mice were classed into 5 groups: control, colistin at 10 mg/kg, LC100 at 50 mg/kg, meropenem at 100 mg/kg and combination of 50 mg/kg of LC100 and 10 mg/kg of colistin. Each treatment was administered intraperitoneally 1 hour after infection. The starting inoculum was 1.87×10^6, and 6 hours after treatment, mouse thigh tissues were homogenized for viable CFU. […] As neutropenic mice were used in the study, the 1.2 log reduction in bacterial burden is due to the combination of LC100 and colistin rather than the immune system of the mouse.

[5] = strain 6075066346, MCR (+), compound alone
[6] = strain 6083655967, MCR (+), compound alone
[7] = strain 6103645107, MCR (+), compound alone
[8] = strain 6123520276, MCR (+), compound alone
[9] = strain 7013177695, MCR (+), compound alone
[10] = strain 7023436560, MCR (+), compound alone

Row | Molecule | MIC [1, 5] | MIC [1, 6] | MIC [1, 7] | MIC [1, 8] | MIC [1, 9] | MIC [1, 10] | EtBr fluorescence (mcr-1 bacterial membrane) | MIC ([2]; strain ENT CLOACAE 6780) | MIC ([2]; strain ENT CLOACAE 21489) | MIC ([2]; strain ENT CLOACAE 30063) | MIC ([2]; strain ENT CLOACAE 44095) | MIC ([3]; strain KLPN 8852) | MIC ([3]; strain KLPN 15588) | MIC ([3]; strain KLPN 24076) | MIC ([3]; strain KLPN 27025) | reduction in bacterial burden [4] | also measured
1 | CCN(CC)CCCCOc1ccc(/C=C/C(=O)c2ccc(OCCCCN(CC)CC)c(CC=C(C)C)c2O)cc1 [LC100] | 100 µg/mL (≈ 173 µM) | 100 µg/mL (≈ 173 µM) | 100 µg/mL (≈ 173 µM) | 100 µg/mL (≈ 173 µM) | 100 µg/mL (≈ 173 µM) | 100 µg/mL (≈ 173 µM) | slight fluorescence | >50 µg/mL | >50 µg/mL | >50 µg/mL | >50 µg/mL | >50 µg/mL | >50 µg/mL | >50 µg/mL | >50 µg/mL | cannot reduce the bacterial burden | antimicrobial activity when used alone ([1]; colistin resistant bacteria, in words): no activity; MIC ([1]; strain 7028444207 (Table 1b), MCR (+), compound alone): 100 µg/mL (≈ 173 µM); observations in treated mice ([4]; LC100 50 mg/kg or Colistin 10 mg/kg+LC100 50 mg/kg, intraperitoneally): Abdominal distension
2 | Colistin | 6.25 µg/mL | 6.25 µg/mL | 6.25 µg/mL | 6.25 µg/mL | 6.25 µg/mL | 6.25 µg/mL | slight fluorescence | 1.56 µg/mL | 0.78 µg/mL | >50 µg/mL | >50 µg/mL | >50 µg/mL | 1.56 µg/mL | 1.56 µg/mL | 1.56 µg/mL | cannot reduce the bacterial burden | colistin MIC ([1]; colistin alone): more than 6 μg/ml; MIC ([1]; panel of colistin resistant strains): 6.25 µg/mL; MIC ([1]; strain 7023444207, MCR (+), compound alone): 6.25 µg/mL
